Among the data in patent US12421210B2, “Fused bicyclic heterocycles as therapeutic agents” (NEW YORK UNIVERSITY, priority 2018, dated 2025) are IC50 values, retold here.

For orientation: IC50 means the concentration at which inhibition is half-maximal.

The target in the first assay is human NAMPT enzyme (His-hNAMPT) (Homo sapiens (Human), UniProt P43490). As to the kind of experiment: NAMPT enzymatic inhibition assay (fluorescence, NADH product). It counts as biochemical. The note with it: [BPS]; read-out: NAMPT IC50 (μM) [BPS].
human NAMPT enzyme (His-hNAMPT), sequence (P43490 whole entry): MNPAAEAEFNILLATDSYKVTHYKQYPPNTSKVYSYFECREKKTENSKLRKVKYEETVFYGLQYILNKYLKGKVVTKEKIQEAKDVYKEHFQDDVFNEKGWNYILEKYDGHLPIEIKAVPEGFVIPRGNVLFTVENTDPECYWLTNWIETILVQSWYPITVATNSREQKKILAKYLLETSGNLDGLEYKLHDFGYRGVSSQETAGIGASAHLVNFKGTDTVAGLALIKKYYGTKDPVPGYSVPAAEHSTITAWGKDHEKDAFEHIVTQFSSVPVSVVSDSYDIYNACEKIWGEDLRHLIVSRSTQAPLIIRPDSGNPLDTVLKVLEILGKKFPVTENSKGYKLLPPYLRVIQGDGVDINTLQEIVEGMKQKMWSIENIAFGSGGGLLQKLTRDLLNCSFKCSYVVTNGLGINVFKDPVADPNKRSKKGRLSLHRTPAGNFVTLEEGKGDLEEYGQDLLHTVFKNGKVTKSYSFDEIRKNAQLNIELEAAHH
For the molecule `CC(C)(C)OC(=O)N1C[C@H]2CC(CNC(=O)NCc3cccnc3)C[C@H]2C1` (stereo partly shown) [Example 268, tert-butyl 5-((3-(pyridin-3-ylmethyl)ureido)methyl)hexahydrocyclopenta[c]pyrrole-2(1H)-carboxylate], the IC50 fell in the range of 0.5 to 0.99 µM. As for `CC(C)(C)OC(=O)N1CCC2CC(CNC(=O)NCc3cccnc3)CC2C1` (stereo not shown) [Example 271, tert-butyl 6-((3-(pyridin-3-ylmethyl)ureido)methyl)hexahydro-1H-cyclopenta[c]pyridine-2(3H)-carboxylate], the half-maximal inhibitory concentration (IC50) lay within 1 to 29 µM. `CC(C)(C)OC(=O)N1CCC2CC(CNC(=O)N3Cc4ccncc4C3)CC2C1` (stereo not shown) [Example 272, tert-butyl 6-((2,3-dihydro-1H-pyrrolo[3,4-c]pyridine-2-carboxamido)methyl)hexahydro-1H-cyclopenta[c]pyridine-2(3H)-carboxylate]: the IC50 lay in the range of 0.01 to 0.49 µM. In the case of `CC(C)(C)OC(=O)N1C[C@H]2C[C@H](CNC(=O)N3Cc4ccncc4C3)C[C@H]2C1` [Example 273, (3aR,5s,6aS)-tert-butyl 5-((2,3-dihydro-1H-pyrrolo[3,4-c]pyridine-2-carboxamido)methyl)hexahydrocyclopenta[c]pyrrole-2(1H)-carboxylate], the IC50 lay in the range of 1 to 29 µM. `CC(C)(C)OC(=O)N1C[C@H]2C[C@@H](CCNC(=O)/C=C/c3cccnc3)C[C@H]2C1` [Example 274, (3aR,5r,6aS)-tert-butyl 5-(2-((E)-3-(pyridin-3 yl)acrylamido)ethyl)hexahydrocyclopenta[c]pyrrole-2(1H)-carboxylate]: the half-maximal inhibitory concentration (IC50) is 0.01 to 0.49 µM. On to `CC(C)(C)OC(=O)N1C[C@H]2C[C@@H](CCNC(=O)COc3cccnc3)C[C@H]2C1` [Example 275, (3aR,5r,6aS)-tert-butyl 5-(2-(2-(pyridin-3-yloxy)acetamido)ethyl)hexahydrocyclopenta[c]pyrrole-2(1H)-carboxylate], for which the IC50 was 0.5 to 0.99 µM. Regarding `CC(C)(C)NC(=O)N1C[C@@H]2[C@@H](CCNC(=O)/C=C/c3ccc(N)nc3)[C@@H]2C1` [Example 293, (1R,5S,6s)-6-(2-((E)-3-(6-aminopyridin-3-yl)acrylamido)ethyl)-N-(tert-butyl)-3-azabicyclo[3.1.0]hexane-3-carboxamide], the IC50 lay in the range of 0.01 to 0.49 µM.

Staying with this assay, now noted: [HDB]; read-out: NAMPT IC50 (μM) [HDB].
For `O=C(/C=C/c1cccnc1)NCC[C@@H]1[C@H]2CN(C(c3ccccc3)c3ccccc3)C[C@@H]12` [Example 276, (E)-N-(2-((1R,5S,6s)-3-benzhydryl-3-azabicyclo[3.1.0]hexan-6-yl)ethyl)-3-(pyridin-3-yl)acrylamide], the IC50 is below 0.01 µM. In the case of `O=C(/C=C/c1cccnc1)NCC[C@@H]1[C@H]2CN(c3nc(N4CCOCC4)ncc3F)C[C@@H]12` [Example 277, (E)-N-(2-((1R,5S,6s)-3-(5-fluoro-2-morpholinopyrimidin-4-yl)-3-azabicyclo[3.1.0]hexan-6-yl)ethyl)-3-(pyridin-3-yl)acrylamide], the IC50 is below 0.01 µM. As to `O=C(/C=C/c1cccnc1)NCC[C@@H]1[C@H]2CN(c3nc(OC4CCCC4)ncc3F)C[C@@H]12` [Example 278, (E)-N-(2-((1R,5S,6s)-3-(2-(cyclopentyloxy)-5-fluoropyrimidin-4-yl)-3-azabicyclo[3.1.0]hexan-6-yl)ethyl)-3-(pyridin-3-yl)acrylamide], the IC50 is below 0.01 µM. `CC(C)(C)OC(=O)N1C[C@@H]2[C@H](CCNC(=O)/C=C/c3cccnc3)[C@@H]2C1` [Example 279, (1R,5S,6r)-tert-butyl 6-(2-((E)-3-(pyridin-3-yl)acrylamido)ethyl)-3-azabicyclo[3.1.0]hexane-3-carboxylate]: the IC50 was 0.01 to 0.49 µM.

Turning to `O=C(/C=C/c1cccnc1)NCC[C@H]1[C@H]2CN(Cc3ccccc3)C[C@@H]12` [Example 280, (E)-N-(2-((1R,5S,6r)-3-benzyl-3-azabicyclo[3.1.0]hexan-6-yl)ethyl)-3-(pyridin-3-yl)acrylamide], the 50% inhibitory concentration (IC50) is 0.01 to 0.49 µM. The same measure, in the same setting: in the case of `O=C(/C=C/c1cccnc1)NCC[C@H]1[C@H]2CN(c3ccccc3)C[C@@H]12` [Example 281, (E)-N-(2-((1R,5S,6r)-3-phenyl-3-azabicyclo[3.1.0]hexan-6-yl)ethyl)-3-(pyridin-3-yl)acrylamide] it was 0.01 to 0.49 µM.

In the case of `O=C(O)COc1ncc(F)c(N2C[C@@H]3[C@@H](CCNC(=O)/C=C/c4cccnc4)[C@@H]3C2)n1` [Example 282, 2-((5-fluoro-4-((1R,5S,6s)-6-(2-((E)-3-(pyridin-3-yl)acrylamido)ethyl)-3-azabicyclo[3.1.0]hexan-3-yl)pyrimidin-2-yl)oxy)acetic acid], the half-maximal inhibitory concentration (IC50) lay within 0.01 to 0.49 µM. In the case of `NC(=O)C(c1ccccc1)N1C[C@@H]2[C@@H](CCNC(=O)/C=C/c3cccnc3)[C@@H]2C1` (stereo partly drawn) [Example 283, (E)-N-(2-((1R,5S,6s)-3-(2-amino-2-oxo-1-phenylethyl)-3-azabicyclo[3.1.0]hexan-6-yl)ethyl)-3-(pyridin-3-yl)acrylamide], the IC50 is below 0.01 µM. With `NC(=O)COc1ncc(F)c(N2C[C@@H]3[C@@H](CCNC(=O)/C=C/c4cccnc4)[C@@H]3C2)n1` [Example 285, (E)-N-(2-((1R,5S,6s)-3-(2-(2-amino-2-oxoethoxy)-5-fluoropyrimidin-4-yl)-3-azabicyclo[3.1.0]hexan-6-yl)ethyl)-3-(pyridin-3-yl)acrylamide], the concentration for half-maximal inhibition (IC50) was below 0.01 µM. Turning to `O=C(/C=C/c1cccnc1)NCC[C@@H]1[C@H]2CN(C(CO)c3ccccc3)C[C@@H]12` (stereo partly drawn) [Example 286, (E)-N-(2-((1R,5S,6s)-3-(2-hydroxy-1-phenylethyl)-3-azabicyclo[3.1.0]hexan-6-yl)ethyl)-3-(pyridin-3-yl)acrylamide], the IC50 is 0.01 to 0.49 µM.

Turning to `O=C(/C=C/c1cccnc1)NCC[C@@H]1[C@H]2CN(c3nc(-c4ccccc4)ncc3F)C[C@@H]12` [Example 287, (E)-N-(2-((1R,5S,6s)-3-(5-fluoro-2-phenylpyrimidin-4-yl)-3-azabicyclo[3.1.0]hexan-6-yl)ethyl)-3-(pyridin-3-yl)acrylamide], the IC50 is below 0.01 µM. Take `CP(C)(=O)c1cccc(N2C[C@@H]3[C@@H](CCNC(=O)/C=C/c4cccnc4)[C@@H]3C2)c1` [Example 288, (E)-N-(2-((1R,5S,6s)-3-(3-(dimethylphosphoryl)phenyl)-3-azabicyclo[3.1.0]hexan-6-yl)ethyl)-3-(pyridin-3-yl)acrylamide]: the IC50 fell in the range of 0.01 to 0.49 µM. For `O=C(/C=C/c1cccnc1)NCC[C@@]1(F)[C@@H]2CN(Cc3ccccc3)C[C@@H]21` [Example 289, (E)-N-(2-((1R,5S,6r)-3-benzyl-6-fluoro-3-azabicyclo[3.1.0]hexan-6-yl)ethyl)-3-(pyridin-3-yl)acrylamide], the IC50 lay in the range of 0.01 to 0.49 µM. On to `Nc1ccc(/C=C/C(=O)NCC[C@@]2(F)[C@@H]3CN(c4ncccn4)C[C@@H]32)cn1` [Example 290, (E)-3-(6-aminopyridin-3-yl)-N-(2-((1R,5S,6r)-6-fluoro-3-(pyrimidin-2-yl)-3-azabicyclo[3.1.0]hexan-6-yl)ethyl)acrylamide], for which the IC50 is 0.01 to 0.49 µM.

For `CC(C)(C)OC(=O)N1C[C@@H]2[C@H](C1)[C@@]2(F)CCNC(=O)/C=C/c1cccnc1` [Example 291, (1R,5S,6r)-tert-butyl 6-fluoro-6-(2-((E)-3-(pyridin-3-yl)acrylamido)ethyl)-3-azabicyclo[3.1.0]hexane-3-carboxylate], the IC50 fell in the range of 0.01 to 0.49 µM. Same read-out and setting: next, `O=C(/C=C/c1cccnc1)NCC[C@@]1(F)[C@@H]2CN(c3nc(Cl)ncc3F)C[C@@H]21` [Example 292, (E)-N-(2-((1R,5S,6r)-3-(2-chloro-5-fluoropyrimidin-4-yl)-6-fluoro-3-azabicyclo[3.1.0]hexan-6-yl)ethyl)-3-(pyridin-3-yl)acrylamide]: 0.01 to 0.49 µM; `O=C(/C=C/c1cccnc1)NCC[C@@H]1[C@H]2CN(Cc3ncccn3)C[C@@H]12` [Example 294, (E)-3-(Pyridin-3-yl)-N-(2-((1R,5S,6s)-3-(pyrimidin-2-ylmethyl)-3-azabicyclo[3.1.0]hexan-6-yl)ethyl)acrylamide]: 0.01 to 0.49 µM; `O=C(/C=C/c1cccnc1)NCC[C@@H]1[C@H]2CN(CCc3ccccc3)C[C@@H]12` [Example 295, (E)-N-(2-((1R,5S,6s)-3-phenethyl-3-azabicyclo[3.1.0]hexan-6-yl)ethyl)-3-(pyridin-3-yl)acrylamide]: 0.01 to 0.49 µM. The same measure, in the same setting: in the case of `O=C(/C=C/c1cccnc1)NCC[C@@H]1[C@H]2CN(C(c3ccccc3)C(F)(F)F)C[C@@H]12` (stereo partly drawn) [Example 296, (E)-3-(pyridin-3-yl)-N-(2-((1R,5S,6s)-3-(2,2,2-trifluoro-1-phenylethyl)-3-azabicyclo[3.1.0]hexan-6-yl)ethyl)acrylamide] it was below 0.01 µM; in that of `COc1ncc(F)c(N2C[C@@H]3[C@@H](CCNC(=O)/C=C/c4cccnc4)[C@@H]3C2)n1` [Example 297, (E)-N-(2-((1R,5S,6s)-3-(5-fluoro-2-methoxypyrimidin-4-yl)-3-azabicyclo[3.1.0]hexan-6-yl)ethyl)-3-(pyridin-3-yl)acrylamide], below 0.01 µM; in that of `O=C(/C=C/c1cccnc1)NCC[C@@H]1[C@H]2CN(Cc3cncnc3)C[C@@H]12` [Example 298, (E)-3-(pyridin-3-yl)-N-(2-((1R,5S,6s)-3-(pyrimidin-5-ylmethyl)-3-azabicyclo[3.1.0]hexan-6-yl)ethyl)acrylamide], below 0.01 µM. Take `O=C(/C=C/c1cccnc1)NCC[C@@H]1[C@H]2CN(c3ccnc(OC(F)F)c3)C[C@@H]12` [Example 299, (E)-N-(2-((1R,5S,6s)-3-(2-(difluoromethoxy)pyridin-4-yl)-3-azabicyclo[3.1.0]hexan-6-yl)ethyl)-3-(pyridin-3-yl)acrylamide]: the IC50 is below 0.01 µM. On to `O=C(/C=C/c1cccnc1)NCC[C@@H]1[C@H]2CN(Cc3ccccc3Cl)C[C@@H]12` [Example 300, (E)-N-(2-((1R,5S,6s)-3-(2-chlorobenzyl)-3-azabicyclo[3.1.0]hexan-6-yl)ethyl)-3-(pyridin-3-yl)acrylamide], for which the IC50 was in the range of 0.01 to 0.49 µM. With `O=C(/C=C/c1cccnc1)NCC[C@@H]1[C@H]2CN(Cc3cccc(Cl)c3)C[C@@H]12` [Example 301, (E)-N-(2-((1R,5S,6s)-3-(3-chlorobenzyl)-3-azabicyclo[3.1.0]hexan-6-yl)ethyl)-3-(pyridin-3-yl)acrylamide], the IC50 was below 0.01 µM.
